# Source: patent US20210393604A1, “NOVEL BENZIMIDAZOLONE COMPOUND AND PHARMACEUTICAL USE THEREOF” (Sumitomo Dainippon Pharma Co., Ltd., priority 2017, published 2021)
# Target: Nav 1.7 (human SCN9A) (Homo sapiens, UniProt Q15858)
# Test: Measurement of Na ion current by automated patch clamp assay in cells stably-expressing human SCN9A
# Assay type: cell-based
# Conditions: compound concentration 10 μmol/L; peak current at 30th depolarizing pulse (10 Hz); holding potential inactivating 50% Nav 1.7 channel (around −60 mV); room temperature; read-out: Inhibitory rate (%) of Na ion current
# Procedure: Measurement of Na Ion Current in Voltage-Dependent Na Channel Gene Expressed Cell
# Nav 1.7 current was measured by automated patch clamp assay using cells stably-expressing human SCN9A.
# Cells Stably-Expressing Human SCN9A
# Tetracycline-induced cells stably-expressing SCN9A were obtained from ChanTest Corporation. The cells were passaged in Ham's F-12 medium containing […], 100 units/mL Penicillin-Streptomycin, 0.01 mg/mL Blasticidin, and 400 μg/mL Zeocin. The cell seeded on a glass slide was cultured in Ham's F-12 medium containing 1 μg/mL tetracycline, 1 μg/mL sodium butyrate, 10% fetal bovine serum, and 100 units/mL Penicillin-Streptomycin. Next day, the Na ion current was measured by automated patch clamp assay.
# Electrophysiologic Measurement of Na Ion Current
# The Na ion current was measured by automated patch clamp assay using the following extracellular solution and intracellular solution.
# Extracellular solution (mmol/L): NaCl 130, MgCl2 2, CaCl2) 2, CdCl2 0.1, NiCl2 0.1, Tetraethylammonium-Cl 18, 4-aminopyridine 1, HEPES (4-(2-hydroxyethyl)-1-piperazineethanesulfonic acid) 10, (adjusting pH 7.4 with NaOH)
# Intracellular solution (mmol/L): CsF 120, EGTA (ethylene glycol tetraacetic acid) 10, NaCl 15, HEPES 10, (adjusting pH 7.2 with CsOH)
# The control of the stimulating pulse and the data acquisition were carried out using EPC10 amplifier and Patch Master Software (HEKA). Data were sampled at 20 kHz, and low-pass filtered at 2.9 kHz. All the measurements were carried out at room temperature. The holding potential was set at a potential inactivating 50% Nav 1.7 channel (around −60 mV), and depolarizing pulse of 20 milliseconds (around 0 mV) was given at a frequency of 10 Hz 30 times. […] The inhibitory rate of the Na ion current by the test compounds was calculated according to the following calculating formula with the peak current value generated by the 30th depolarizing pulse.
# Inhibitory rate of Na ion current (%)=100×[(Peak current value in the absence of Test Compound)−(Peak current value in the presence of Test Compound)]/(Peak current value in the absence of Test Compound)
# Nav 1.7 (human SCN9A), sequence (Q15858 whole entry): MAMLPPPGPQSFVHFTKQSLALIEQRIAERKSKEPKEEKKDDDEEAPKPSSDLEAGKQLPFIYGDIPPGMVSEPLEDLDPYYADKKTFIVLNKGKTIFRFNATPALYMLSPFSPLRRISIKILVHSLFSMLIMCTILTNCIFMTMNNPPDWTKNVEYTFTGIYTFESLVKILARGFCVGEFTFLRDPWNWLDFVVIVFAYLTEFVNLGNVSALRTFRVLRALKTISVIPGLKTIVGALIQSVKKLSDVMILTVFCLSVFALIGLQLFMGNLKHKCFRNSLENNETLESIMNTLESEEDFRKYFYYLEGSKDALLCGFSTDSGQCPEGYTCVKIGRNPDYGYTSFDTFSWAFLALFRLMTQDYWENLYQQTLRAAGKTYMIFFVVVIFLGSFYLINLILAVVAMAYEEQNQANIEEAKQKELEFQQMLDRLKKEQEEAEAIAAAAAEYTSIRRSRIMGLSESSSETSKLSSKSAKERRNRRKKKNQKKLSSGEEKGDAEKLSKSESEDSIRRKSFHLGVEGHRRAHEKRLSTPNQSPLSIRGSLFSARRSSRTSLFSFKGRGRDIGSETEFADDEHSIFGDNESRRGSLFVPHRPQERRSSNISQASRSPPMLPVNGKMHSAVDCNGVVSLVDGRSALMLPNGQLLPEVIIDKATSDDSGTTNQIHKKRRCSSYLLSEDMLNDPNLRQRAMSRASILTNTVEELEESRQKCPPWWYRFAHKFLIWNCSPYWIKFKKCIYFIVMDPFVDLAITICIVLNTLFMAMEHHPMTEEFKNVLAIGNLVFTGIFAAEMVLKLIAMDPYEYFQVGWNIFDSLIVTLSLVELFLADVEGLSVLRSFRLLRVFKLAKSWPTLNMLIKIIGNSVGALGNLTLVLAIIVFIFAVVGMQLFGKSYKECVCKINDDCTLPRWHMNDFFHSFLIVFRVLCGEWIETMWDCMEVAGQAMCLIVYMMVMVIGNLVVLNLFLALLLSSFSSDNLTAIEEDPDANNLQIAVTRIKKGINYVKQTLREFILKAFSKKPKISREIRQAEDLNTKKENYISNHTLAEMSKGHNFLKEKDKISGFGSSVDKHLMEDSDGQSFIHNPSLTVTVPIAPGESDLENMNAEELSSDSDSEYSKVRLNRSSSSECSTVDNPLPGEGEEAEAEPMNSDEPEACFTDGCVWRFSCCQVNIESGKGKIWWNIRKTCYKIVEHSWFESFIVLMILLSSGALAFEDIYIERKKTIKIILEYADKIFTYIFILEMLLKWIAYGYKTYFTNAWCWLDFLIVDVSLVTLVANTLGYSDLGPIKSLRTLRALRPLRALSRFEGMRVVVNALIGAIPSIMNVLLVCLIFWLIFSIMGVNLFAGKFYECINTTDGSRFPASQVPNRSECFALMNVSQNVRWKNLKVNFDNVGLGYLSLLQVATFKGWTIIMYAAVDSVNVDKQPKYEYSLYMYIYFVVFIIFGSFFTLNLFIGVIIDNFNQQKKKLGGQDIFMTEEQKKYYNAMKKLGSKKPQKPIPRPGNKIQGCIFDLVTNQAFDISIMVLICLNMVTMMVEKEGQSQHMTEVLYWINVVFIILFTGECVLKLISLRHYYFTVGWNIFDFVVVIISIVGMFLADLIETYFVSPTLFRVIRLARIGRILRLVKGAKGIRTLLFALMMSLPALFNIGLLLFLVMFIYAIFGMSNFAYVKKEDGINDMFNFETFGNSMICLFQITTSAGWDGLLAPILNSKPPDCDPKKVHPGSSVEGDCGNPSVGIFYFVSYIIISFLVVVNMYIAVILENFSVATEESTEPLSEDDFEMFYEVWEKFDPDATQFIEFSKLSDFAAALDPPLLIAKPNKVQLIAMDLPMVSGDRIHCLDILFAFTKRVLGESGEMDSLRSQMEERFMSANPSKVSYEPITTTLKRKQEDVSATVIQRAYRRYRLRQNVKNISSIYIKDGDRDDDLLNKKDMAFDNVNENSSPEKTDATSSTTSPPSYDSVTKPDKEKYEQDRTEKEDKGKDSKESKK
row,Structure (SMILES),inhibition at 10 µM [%]
1,"CC(C)(O)Cn1c(=O)[nH]c2ccc(Oc3ccc(C(F)(F)F)cn3)cc21 [Example 1, 1-(2-hydroxy-2-methylpropyl)-6-{[5-(trifluoromethyl)pyridin-2-yl]oxy}-1,3-dihydro-2H-benzimidazol-2-one]",33
2,"O=c1[nH]c2ccc(Oc3ccc(C(F)(F)F)cn3)cc2n1CC1(O)COC1 [Example 2, 1-[(3-hydroxyoxetan-3-yl)methyl]-6-{[5-(trifluoromethyl)pyridin-2-yl]oxy}-1,3-dihydro-2H-benzimidazol-2-one]",26
3,"O=c1[nH]c2ccc(Oc3ccc(C(F)(F)F)nc3)cc2n1CC1(O)COC1 [Example 3, 1-[(3-hydroxyoxetan-3-yl)methyl]-6-{[6-(trifluoromethyl)pyridin-3-yl]oxy}-1,3-dihydro-2H-benzimidazol-2-one]",22
4,"O=c1[nH]c2ccc(Oc3ccc(C(F)(F)F)cn3)cc2n1[C@H]1CC[C@@H](O)CC1 [Example 4, 1-(cis-4-hydroxycyclohexyl)-6-{[5-(trifluoromethyl)pyridin-2-yl]oxy}-1,3-dihydro-2H-benzimidazol-2-one]",39
5,"O=c1[nH]c2ccc(Oc3ccc(OC(F)(F)F)cc3)cc2n1CC1(O)COC1 [Example 5, 1-[(3-hydroxyoxetan-3-yl)methyl]-6-[4-(trifluoromethoxy)phenoxy]-1,3-dihydro-2H-benzimidazol-2-one]",86
6,"CC(C)(O)Cn1c(=O)[nH]c2ccc(Oc3ccc(F)cc3)cc21 [Example 6, 6-(4-fluorophenoxy)-1-(2-hydroxy-2-methylpropyl)-1,3-dihydro-2H-benzimidazol-2-one]",40
7,"O=c1[nH]c2ccc(Oc3ccc(F)cc3)cc2n1CC1(O)COC1 [Example 7, 6-(4-fluorophenoxy)-1-[(3-hydroxyoxetan-3-yl)methyl]-1,3-dihydro-2H-benzimidazol-2-one]",40
8,"O=c1[nH]c2ccc(Oc3ccc(Cl)cc3)cc2n1CC1(O)COC1 [Example 8, 6-(4-chlorophenoxy)-1-[(3-hydroxyoxetan-3-yl)methyl]-1,3-dihydro-2H-benzimidazol-2-one]",80
9,"C[C@H](n1c(=O)[nH]c2ccc(Oc3ccc(C(F)(F)F)cn3)cc21)C(C)(C)O [Example 9, 1-[(2S)-3-hydroxy-3-methylbutan-2-yl]-6-{[5-(trifluoromethyl)pyridin-2-yl]oxy}-1,3-dihydro-2H-benzimidazol-2-one]",27
10,"C[C@H](n1c(=O)[nH]c2ccc(Oc3ccc(F)cc3)cc21)C(C)(C)O [Example 10, 6-(4-fluorophenoxy)-1-[(2S)-3-hydroxy-3-methylbutan-2-yl]-1,3-dihydro-2H-benzimidazol-2-one]",50
11,"O=c1[nH]c2ccc(Oc3ccc(F)cc3)cc2n1[C@H]1CC[C@@H](O)CC1 [Example 11, 6-(4-fluorophenoxy)-1-(cis-4-hydroxycyclohexyl)-1,3-dihydro-2H-benzimidazol-2-one]",65
12,"CCn1c(=O)n(CC(C)(C)O)c2cc(Oc3ccc(C(F)(F)F)cn3)ccc21 [Example 12, 1-ethyl-3-(2-hydroxy-2-methylpropyl)-5-{[5-(trifluoromethyl)pyridin-2-yl]oxy}-1,3-dihydro-2H-benzimidazol-2-one]",14
13,"Cn1c(=O)n(CC(C)(C)O)c2cc(Oc3ccc(C(F)(F)F)cn3)ccc21 [Example 13, 3-(2-hydroxy-2-methylpropyl)-1-methyl-5-{[5-(trifluoromethyl)pyridin-2-yl]oxy}-1,3-dihydro-2H-benzimidazol-2-one]",38
14,"Cn1c(=O)n(CC2(O)COC2)c2cc(Oc3ccc(C(F)(F)F)cn3)ccc21 [Example 14, 3-[(3-hydroxyoxetan-3-yl)methyl]-1-methyl-5-{[5-(trifluoromethyl)pyridin-2-yl]oxy}-1,3-dihydro-2H-benzimidazol-2-one]",39
15,"Cn1c(=O)n(CC2(O)COC2)c2cc(Oc3ccc(C(F)(F)F)nc3)ccc21 [Example 15, 3-[(3-hydroxyoxetan-3-yl)methyl]-1-methyl-5-{[6-(trifluoromethyl)pyridin-3-yl]oxy}-1,3-dihydro-2H-benzimidazol-2-one]",46
16,"Cn1c(=O)n(CC2(O)COC2)c2cc(Oc3ccc(F)cc3)ccc21 [Example 16, 5-(4-fluorophenoxy)-3-[(3-hydroxyoxetan-3-yl)methyl]-1-methyl-1,3-dihydro-2H-benzimidazol-2-one]",61
17,"Cn1c(=O)n(CC2(O)COC2)c2cc(Oc3ccc(OC(F)(F)F)cc3)ccc21 [Example 17, 3-[(3-hydroxyoxetan-3-yl)methyl]-1-methyl-5-[4-(trifluoromethoxy)phenoxy]-1,3-dihydro-2H-benzimidazol-2-one]",87
18,"Cn1c(=O)n(CC2(O)COC2)c2cc(Oc3ccc(Cl)cc3)ccc21 [Example 18, 5-(4-chlorophenoxy)-3-[(3-hydroxyoxetan-3-yl)methyl]-1-methyl-1,3-dihydro-2H-benzimidazol-2-one]",86
19,"CC(C)(O)Cn1c(=O)[nH]c2ccc(-c3ccc(C(F)(F)F)nc3)cc21 [Example 19, 1-(2-hydroxy-2-methylpropyl)-6-[6-(trifluoromethyl)pyridin-3-yl]-1,3-dihydro-2H-benzimidazol-2-one]",8

# Further lines, results first:
row,inhibition at 10 µM [%],Structure (SMILES)
1,29,"CC(C)(O)Cn1c(=O)[nH]c2ccc(-c3ccc(C(F)(F)F)cn3)cc21 [Example 20, 1-(2-hydroxy-2-methylpropyl)-6-[5-(trifluoromethyl)pyridin-2-yl]-1,3-dihydro-2H-benzimidazol-2-one]"
2,96,"CC(C)(O)Cn1c(=O)[nH]c2ccc(-c3ccc(C(F)(F)F)cc3)cc21 [Example 21, 1-(2-hydroxy-2-methylpropyl)-6-[4-(trifluoromethyl)phenyl]-1,3-dihydro-2H-benzimidazol-2-one]"
3,43,"CC(C)(O)Cn1c(=O)[nH]c2ccc(-c3ccc(F)cc3)cc21 [Example 22, 6-(4-fluorophenyl)-1-(2-hydroxy-2-methylpropyl)-1,3-dihydro-2H-benzimidazol-2-one]"
4,36,"CC(C)(O)Cn1c(=O)[nH]c2cc(-c3ccc(C(F)(F)F)nc3)ccc21 [Example 23, 1-(2-hydroxy-2-methylpropyl)-5-[6-(trifluoromethyl)pyridin-3-yl]-1,3-dihydro-2H-benzimidazol-2-one]"
5,45,"CC(C)(O)Cn1c(=O)[nH]c2cc(-c3ccc(F)cc3)ccc21 [Example 24, 5-(4-fluorophenyl)-1-(2-hydroxy-2-methylpropyl)-1,3-dihydro-2H-benzimidazol-2-one]"
6,42,"CC(C)(O)Cn1c(=O)[nH]c2cc(Oc3ccc(OC(F)(F)F)cc3)ccc21 [Example 25, 1-(2-hydroxy-2-methylpropyl)-5-[4-(trifluoromethoxy)phenoxy]-1,3-dihydro-2H-benzimidazol-2-one]"
7,32,"CC(C)(O)Cn1c(=O)[nH]c2cc(Oc3ccc(C(F)(F)F)cn3)ccc21 [Example 26, 1-(2-hydroxy-2-methylpropyl)-5-{[5-(trifluoromethyl)pyridin-2-yl]oxy}-1,3-dihydro-2H-benzimidazol-2-one]"
8,38,"O=c1[nH]c2cc(Oc3ccc(OC(F)(F)F)cc3)ccc2n1CC1(O)COC1 [Example 27, 1-[(3-hydroxyoxetan-3-yl)methyl]-5-[4-(trifluoromethoxy)phenoxy]-1,3-dihydro-2H-benzimidazol-2-one]"
9,39,"Cn1c(=O)n(CC2(O)COC2)c2ccc(Oc3ccc(OC(F)(F)F)cc3)cc21 [Example 28, 1-[(3-hydroxyoxetan-3-yl)methyl]-3-methyl-5-[4-(trifluoromethoxy)phenoxy]-1,3-dihydro-2H-benzimidazol-2-one]"
